# According to ChEMBL document CHEMBL5380812, “Structural Dynamics-Driven Discovery of Anticancer and Antimetastatic Effects of Diltiazem and Glibenclamide Targeting Urokinase Receptor” (J Med Chem, 2023):
# pIC50, pKd: −log10 of the molar value. Active and inactive are the calls of the source. The calls are words filed in the database; no cut-off is given here.
# How the values were obtained:
# [1] = test system: Urokinase plasminogen activator surface receptor (Homo sapiens), Q03405 [UNDEFINED MUTATION]; details: dose 100.0 µM
# Sequence of Urokinase plasminogen activator surface receptor (Homo sapiens), Q03405 [UNDEFINED MUTATION] (Q03405 whole entry, looked up, stated change not applied): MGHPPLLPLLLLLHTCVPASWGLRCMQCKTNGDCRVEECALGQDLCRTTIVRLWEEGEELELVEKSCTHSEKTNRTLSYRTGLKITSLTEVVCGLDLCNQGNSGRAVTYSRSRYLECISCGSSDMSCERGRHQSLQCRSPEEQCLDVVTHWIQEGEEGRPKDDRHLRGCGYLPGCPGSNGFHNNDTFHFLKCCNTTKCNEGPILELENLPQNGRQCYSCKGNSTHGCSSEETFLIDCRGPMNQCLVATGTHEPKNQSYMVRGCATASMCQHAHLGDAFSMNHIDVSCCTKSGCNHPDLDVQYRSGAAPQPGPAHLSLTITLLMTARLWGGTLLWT
# Description: Binding affinity to uPAR H47C/N259C (unknown origin) mutant assessed as response unit at 100 uM by surface plasmon resonance (SPR) analysis relative to control
# [2] = molecular target: Urokinase plasminogen activator surface receptor (Homo sapiens, UniProt Q03405, H47C/N259C); experiment: Binding affinity to uPAR H47C/N259C (unknown origin) mutant assessed as equilibrium dissociation constant by surface plasmon resonance (SPR) analysis relative to control
# Sequence of Urokinase plasminogen activator surface receptor (Q03405 23-305 H69C/N281C limits assumed): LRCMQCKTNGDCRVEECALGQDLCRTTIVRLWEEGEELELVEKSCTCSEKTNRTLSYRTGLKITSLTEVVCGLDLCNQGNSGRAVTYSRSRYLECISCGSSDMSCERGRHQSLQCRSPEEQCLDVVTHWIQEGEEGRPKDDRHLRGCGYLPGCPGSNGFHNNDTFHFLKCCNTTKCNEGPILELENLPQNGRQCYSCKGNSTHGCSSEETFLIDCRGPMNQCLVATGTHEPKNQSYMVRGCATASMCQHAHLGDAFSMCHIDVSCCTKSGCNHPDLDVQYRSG
# [3] = Inhibition of human recombinant […]/uPAR (unknown origin) interaction measured after 2 hrs by ELISA
# [4] = test system: HEK-293T; experiment: Antimetastatic activity against uPAR-overexpressing HEK293T cells assessed as suppression of invasive property incubated for 24 hrs by Crystal violet staining based - Transwell assay; format: functional, cell-based; details: Homo sapiens, dose 0-100 µM
# [5] = test system: CT26; experiment: Antiinvasive activity against mouse CT26-muPAR-mCherry cells assessed as suppression of invasive property incubated for 24 hrs by Crystal violet staining based - Transwell assay; format: functional, cell-based; details: dose 0-100 µM
# [6] = test system: CT26; experiment: Antiinvasive activity against mouse CT26 cells assessed as suppression of invasive property incubated for 24 hrs by Crystal violet staining based - Transwell assay; format: functional, cell-based; details: dose 0-100 µM
# [7] = test system: MCF7; experiment: Antiinvasive activity against empty vector transfected human MCF7 cells assessed as suppression of invasive property at upto 100 uM incubated for 24 hrs by Crystal violet staining based - Transwell assay; format: functional, cell-based
# [8] = test system: MCF7; experiment: Antiinvasive activity against short hairpin RNA sequence of uPA containing vector transfected human MCF7-shuPA cells assessed as suppression of invasive property at upto 100 uM incubated for 24 hrs by Crystal violet staining based - Transwell assay; format: functional, cell-based
# [9] = test system: Caco-2; experiment: Antiinvasive activity against uPAR-negative human Caco-2 cells assessed as inhibition of invasive property at upto 100 uM incubated for 24 hrs by Crystal violet staining based - Transwell assay; format: functional, cell-based
# [10] = test system: MDA-MB-231; experiment: Antiinvasive activity against human MDA-MB-231 cells expressing moderate uPAR assessed as inhibition of invasive property at upto 100 uM incubated for 24 hrs by Crystal violet staining based - Transwell assay; format: functional, cell-based
# [11] = test system: PC-3; experiment: Antiinvasive activity against human PC-3 cells expressing high uPAR assessed as inhibition of invasive property incubated for 24 hrs by Crystal violet staining based - Transwell assay; format: functional, cell-based; details: dose 0-100 µM
# [12] = test system: PC-3; experiment: Cytotoxicity against human PC-3 cells assessed as survival rate without matrigel at upto 100 uM; format: toxicity, cell-based; details: pc-3, 100 µM
# [13] = test system: PC-3; experiment: Antiinvasive activity against human PC-3 cells expressing high uPAR assessed as inhibition of invasive property without matrigel at upto 100 uM incubated for 24 hrs by crystal violet staining based - Transwell assay; format: functional, cell-based
# [14] = test system: PC-3; experiment: Inhibition of cell migration in human PC-3 cells assessed as wound healing measured upto 100 uM; format: cell-based
# [15] = test system: HUVEC; experiment: Antiangiogenic activity against HUVEC cells assessed as inhibition of formation of capillary-like polygons/fork-like branches in serum free medium at 100 uM; format: functional, cell-based; details: Homo sapiens
# [16] = test system: CT26; experiment: In vivo antitumor activity against mouse CT26 cells subcutaneously homografted in Balb/c mouse model assessed as suppression of tumor growth at 100 mg/kg, po every two days for 14 days; format: functional, organism-based; details: time 14.0 day
# [17] = Toxicity in Balb/c mouse homografted with mouse CT26 cells assessed as body weight at 100 mg/kg, po every two days for 14 days; format: organism-based; details: in vivo, 336 h, time 14 day
# [18] = test system: CT26; experiment: In vivo antitumor activity against mouse CT26 cells subcutaneously homografted in Balb/c mouse model assessed as tumor weight at 100 mg/kg, po every two days for 14 days relative to control; format: functional; details: CT26, 336 h, time 14 day
# [19] = test system: CT26; experiment: In vivo antimetastatic activity against mouse CT26-muPAR-mCherry cells intravenously homografted in Balb/c mouse lung metastatic model assessed as suppression of mCherry fluorescence in lung at 100 mg/kg, po every two days for 15 days relative to control; format: functional; details: time 15 day
# [20] = test system: CT26; experiment: In vivo antimetastatic activity against mouse CT26-muPAR-mCherry cells intravenously homografted in Balb/c mouse lung metastatic model assessed as suppression of mCherry fluorescence in lung at 30 mg/kg, po every two days for 15 days relative to control; format: functional; details: time 15 day
# [21] = test system: CT26; experiment: In vivo antimetastatic activity against mouse CT-26-muPAR-mCherry cells intravenously homografted in Balb/c mouse lung metastatic model assessed as suppression of hyperplastic nodules on the pleural surface in lung at 30 to 100 mg/kg, po every two days for 15 days; format: functional, organism-based; details: dose 30-100 mg/kg, time 15.0 day
# [22] = test system: CT26; experiment: In vivo antimetastatic activity against mouse CT-26-muPAR-mCherry cells intravenously homografted in Balb/c mouse lung metastatic model assessed as suppression of hyperplasia-induced lung weight increase at 30 to 100 mg/kg, po every two days for 15 days; format: functional, organism-based; details: dose 30-100 mg/kg, time 15.0 day
# [23] = test system: CT26; experiment: In vivo antimetastatic activity against mouse CT-26-muPAR-mCherry cells intravenously homografted in Balb/c mouse lung metastatic model assessed as suppression of metastases of cancer cells around vessels at 100 mg/kg, po every two days for 15 days by histopathological analysis; format: functional, organism-based; details: time 15.0 day
# [24] = Toxicity in Balb/c mouse homografted with mouse CT-26-muPAR-mCherry cells assessed as adverse effect at 100 mg/kg, po every two days for 15 days; format: organism-based; details: in vivo, 360 h, time 15 day
# [25] = Toxicity in Balb/c mouse homografted with mouse CT-26-muPAR-mCherry cells assessed as vascular hyperemia at 100 mg/kg, po every two days for 15 days; format: organism-based; details: in vivo, 360 h, time 15 day
# [26] = test system: CT26; experiment: In vivo antitumor activity against mouse CT26 cells subcutaneously homografted in Balb/c mouse model assessed as suppression of tumor growth at 300 mg/kg, po every two days for 14 days; format: functional, organism-based; details: time 14.0 day
# [27] = Toxicity in Balb/c mouse homografted with mouse CT26 cells assessed as body weight at 300 mg/kg, po every two days for 14 days; format: organism-based; details: in vivo, 336 h, time 14 day
# [28] = test system: CT26; experiment: In vivo antitumor activity against CT26 cells subcutaneously homografted in Balb/c mouse model assessed as tumor weight at 300 mg/kg, po every two days for 14 days relative to control; format: functional; details: CT26, 336 h, time 14 day
# [29] = test system: CT26; experiment: In vivo antimetastatic activity against mouse CT26-muPAR-mCherry cells intravenously homografted in Balb/c mouse lung metastatic model assessed as suppression of mCherry fluorescence in lung at 300 mg/kg, po every two days for 15 days relative to control; format: functional; details: time 15 day
# [30] = test system: CT26; experiment: In vivo antimetastatic activity against mouse CT-26-muPAR-mCherry cells intravenously homografted in Balb/c mouse lung metastatic model assessed as suppression of hyperplastic nodules on the pleural surface in lung at 100 to 300 mg/kg, po every two days for 15 days; format: functional, organism-based; details: dose 100-300 mg/kg, time 15.0 day
# [31] = test system: CT26; experiment: In vivo antimetastatic activity against mouse CT-26-muPAR-mCherry cells intravenously homografted in Balb/c mouse lung metastatic model assessed as suppression of hyperplasia-induced lung weight increase at 30 to 100 to 300 mg/kg, po every two days for 15 days; format: functional, organism-based; details: dose 100-300 mg/kg, time 15.0 day
# [32] = test system: CT26; experiment: In vivo antimetastatic activity against mouse CT-26-muPAR-mCherry cells intravenously homografted in Balb/c mouse lung metastatic model assessed as suppression of metastases of cancer cells around vessels at 300 mg/kg, po every two days for 15 days by histopathological analysis; format: functional, organism-based; details: time 15.0 day
# [33] = Toxicity in Balb/c mouse homografted with mouse CT-26-muPAR-mCherry cells assessed as adverse effect at 300 mg/kg, po every two days for 15 days; format: organism-based; details: in vivo, 360 h, time 15 day
smiles,measurement,setting,value
CCN(CC)CCOC(=O)c1ccc(N)cc1,RU,[1],17
CCCCCOC(=O)Nc1nc(=O)n([C@@H]2O[C@@H](O)[C@@H](O)[C@H]2O)cc1F,RU,[1],1
CCCCC1C(=O)N(c2ccccc2)N(c2ccccc2)C1=O,RU,[1],2.7
O=C(/C=C/c1ccc(O)c(O)c1)OCCc1ccccc1,RU,[1],8
COc1ccc([C@@H]2Sc3ccccc3N(CCN(C)C)C(=O)[C@@H]2OC(C)=O)cc1 [DILTIAZEM],pKd,[2],4.41
same,pIC50,[3],4.23
same,Activity,[4],Dose-Dependent Effect
same,Activity,[5],Dose-Dependent Effect
same,Activity,[6],Dose-Dependent Effect
same,Activity,[7],Active
same,Activity,[8],Active
same,Activity,[9],inactive
same,Activity,[10],Active
same,Activity,[11],Dose-Dependent Effect
same,Activity,[12],Non-Toxic
same,Activity,[13],Active
same,Activity,[14],Active
same,Activity,[15],Active
same,Activity,[16],Active
same,Activity,[17],Non-Toxic
same,inhibition in vivo at 100 mg/kg,[18],73.2%
same,Activity,[19],76%
same,Activity,[20],61%
same,Activity,[21],Active
same,Activity,[22],Active
same,Activity,[23],Active
same,Activity,[24],Non-Toxic
same,Activity,[25],Toxic
same,RU,[1],12
CCN(CC)CCCC(C)Nc1c2ccc(Cl)cc2nc2ccc(OC)cc12 (centres undefined),RU,[1],20
O=C(O)CCc1nc(-c2ccccc2)c(-c2ccccc2)o1 [OXAPROZIN],pKd,[2],3.94
same,RU,[1],20
CC(=O)OCC(CCn1cnc2cnc(N)nc21)COC(C)=O,RU,[1],-4
CC(CCc1ccc(O)cc1)NCCc1ccc(O)c(O)c1 (centres undefined),RU,[1],5.5
O=C1CC2(CCCC2)CC(=O)N1CCCCN1CCN(c2ncccn2)CC1,RU,[1],1
COC(=O)[C@@H](N)CCCNC(=N)N[N+](=O)[O-],RU,[1],0
COc1ccc(CN(CCN(C)C)c2ccccc2)cc1,RU,[1],1.7
CCc1c(C)[nH]c2c1C(=O)C(CN1CCOCC1)CC2 (centres undefined),RU,[1],8
CNC(=C[N+](=O)[O-])NCCSCc1ccc(CN(C)C)o1,RU,[1],0
O=C(O)c1cccnc1Nc1cccc(C(F)(F)F)c1,RU,[1],7
CCOC(=O)Nc1ccc(NCc2ccc(F)cc2)nc1N,RU,[1],15
CCc1c(C)[nH]c2c1C(=O)CC(CN1CCOCC1)C2 (centres undefined),RU,[1],11
CN(C)CCCC1(c2ccc(F)cc2)OCc2cc(C#N)ccc21 (centres undefined),RU,[1],7
O=C(CCCN1CCC(O)(c2ccc(Cl)cc2)CC1)c1ccc(F)cc1 [HALOPERIDOL],pKd,[2],4.39
same,RU,[1],10
NC(CO)C(=O)NNCc1ccc(O)c(O)c1O (centres undefined),RU,[1],0
Cc1ccc(S(=O)(=O)N[C@@H](CCCCN)C(=O)CCl)cc1,RU,[1],0
CN(C)CCC=C1c2ccccc2CCc2ccccc21,RU,[1],11
CC(C)=CCOc1c2occc2cc2ccc(=O)oc12,RU,[1],1
CNCCCC12CCC(c3ccccc31)c1ccccc12 [MAPROTILINE],pKd,[2],4.10
same,RU,[1],13
CN/C(=N\CCSCc1nc[nH]c1C)NC#N,RU,[1],-3
CC(C)(C)c1ccc(C(=O)CCCN2CCC(OC(c3ccccc3)c3ccccc3)CC2)cc1,RU,[1],1.5
CCN[C@H]1CN(CCCOC)S(=O)(=O)c2sc(S(N)(=O)=O)cc21,RU,[1],-1
COc1ccc(Cl)cc1C(=O)NCCc1ccc(S(=O)(=O)NC(=O)NC2CCCCC2)cc1 [GLYBURIDE],pKd,[2],4.39
same,pIC50,[3],4.16
same,Activity,[4],Dose-Dependent Effect
same,Activity,[5],Dose-Dependent Effect
same,Activity,[6],Dose-Dependent Effect
same,Activity,[7],Active
same,Activity,[8],Active
same,Activity,[9],inactive
same,Activity,[10],Active
same,Activity,[11],Dose-Dependent Effect
same,Activity,[12],Non-Toxic
same,Activity,[13],Active
same,Activity,[14],Active
same,Activity,[15],Active
same,Activity,[26],Active
same,Activity,[27],Non-Toxic
same,inhibition in vivo at 300 mg/kg,[28],62.8%
same,Activity,[19],70%
same,Activity,[29],83%
same,Activity,[30],Active
same,Activity,[31],Active
same,Activity,[32],Active
same,Activity,[33],Non-Toxic
same,RU,[1],33
CNCC(O)c1ccc(O)cc1 (centres undefined),RU,[1],0.5
